Measurements taken from patent US20060074109A1, “Use of inhibitors of 24-hydroxylase in the treatment of cancer” (Sapphire Therapeutics, Inc., priority 2004, published 2006).
Where two headings read alike, the source gives them in different places.

Experiments:
[1] = system: 24OHase mRNA in OVCAR-3 cells; assay: Quantitative RT-PCR of 24OHase mRNA; type: cell-based, human; settings: 100 nM
Procedure: Ethanol was used as a vehicle, and it was also added to the control cells. For RNA extraction, the cells were collected 4, 6 and 24 hr after the treatment with vitamin D compound or vehicle. RNA extractions were done with TRIZOL reagent (GIBCO Invitrogen Corporation, Paisley, UK). The integrity of RNA samples was confirmed on gel electrophoresis. […] The reactions for 24-hydroxylase were performed in the LightCycler instrument (Roche Diagnostics, Basel, Switzerland) from 300 ng total RNA. PBGD (human porphobilinogendeaminase) mRNA was used as an […] control. […] Nucleotides, Tth DNA polymerase (DNA polymerase and reverse transcriptase activity), SYBR Green I and reaction buffer were included in the LightCycler-RNA Master SYBR Green I kit (Roche Diagnostics). […] Cell. […] Detection of fluorescent product was performed at the end of the extension step of each cycle. To verify the specific products, melting curve analysis and gel electrophoresis were done. The data were quantified by the Fit Points method with LightCycler Data Analysis software. […] Hormone treatments and RT-PCR were done twice.

[2] = system: DU145 prostate cancer cells; assay: Cell growth, methylene blue uptake (Experiment VI); type: cell-based; settings: calcitriol alone, compared with OVCAR-3
Procedure: (§1) Culture conditions were the same as for Experiment I. Cell growth was measured using uptake of methylene blue (0.5% in 50% ethanol), followed by air drying and release of the dye in 1% sodium N-lauroyl sarcosine in PBS.

[3] = system: PC3 prostate cancer cells; assay: Cell growth, methylene blue uptake (Experiment VI); type: cell-based; settings: calcitriol alone, compared with OVCAR-3
Procedure: as §1

[4] = system: CWR22Rv-1 prostate cancer cells; assay: Cell growth, methylene blue uptake (Experiment VI); type: cell-based; settings: calcitriol alone, compared with OVCAR-3
Procedure: as §1

UT-OC-1 cells = assay: Cell growth assay, crystal violet, 11 days; type: cell-based, human; settings: 100 nM alone, 11 days
Procedure: (§2) The human ovarian adenocarcinoma cell line, OVCAR-3 (ATCC, Manassas, Va.) was maintained, as recommended by the supplier, in RPMI 1640 medium (Sigma Aldrich, St. Louis, Mo.) supplemented with 10% FBS, 10 μg/ml insulin, 0.25% glucose and antibiotics (100 IU/ml penicillin, 100 μg/ml streptomycin). Human ovarian adenocarcinoma cell lines UT-OC-1, UT-OC-2, UT-OC-3, UT-OC-4, UT-OC-5 (Grenman, S., Engblom, P., Rantanen, V., Klemi, P. and Isola, J., “Cytogenetic Characterization of Five New Ovarian Carcinoma Cell Lines,” Acta Obstet. Gynecol. Scand., 76:83 (1997)) and SK-OV-3 and a human keratinocyte cell line HaCaT were grown in DMEM (Sigma Aldrich) with 10% FBS and antibiotics (100 IU/ml penicillin, 100 μg/ml streptomycin), and monkey kidney COS cells were maintained in DMEM/F12 (Sigma Aldrich) with 5% FBS. All cell lines were kept at 37° C. in a humidified 95% air/5% CO2 incubator.
(§3) When OVCAR-3 cells were on the logarithmic growth phase (70% confluent) the growth assay was started. For cell growth assay, 2,000 cell/200 μl/well were plated on 96-well culture plates. […] Ethanol was used as a vehicle, and it was also included in the control. The medium containing ethanol vehicle and/or hormones were changed to a fresh one every third day. Cell growth samples were taken 0, 1, 3, 5, 7, 9 and 11 days after the treatment.
(§4) Relative cell numbers were quantified as described previously (Kueng W, Silber E, Eppenberger U. Quantification of cells cultured on 96-well plates. Anal. Biochem., 182:16-9 (1989)). Cells were fixed on the bottom of the wells by addition of 10 μl of 11% glutaraldehyde solution in 0.1% phosphate buffer to 100 μl of medium. The plate was shaken 500 cycles/min for 15 min, washed 3 times by submersion in de-ionised water and air-dried. Fixed cells were stained with 0.1% solution of crystal violet dissolved in de-ionised water. After 20 min incubation, excess dye was removed by carefully washing with de-ionised water. The plate was air-dried prior to a bound dye solubilisation in 100 μl of 10% acetic acid. Relative cell number was given as absorbance units by measuring the optical density (590 nm) from each well using Victor 1420 multilabel counter (Wallac, Turku, Finland). Six determinations were used to calculate the mean optical density ±SD in each concentration at each time point. The absorbance value of day 0 (an overnight culture of 2,000 cells/well) was set as 0 by subtracting it from each value obtained from adjacent time-point measurements (days 1-11), and based on these values growth curves were created. Experiments were repeated 3-5 times. Day 11 was used to compare the effect of hormone treatments and 24OHase inhibitor. Statistical analyses were done using Student's t-test.
(§5) Cell growth samples were obtained after 11 days treatment.

UT-OC-4 cells = assay: Cell growth assay, crystal violet, 11 days; type: cell-based, human; settings: 100 nM alone, 11 days
Procedure: as §2, §3, §4, §5

[5] = system: OVCAR-3 ovarian cancer cells; assay: Cell growth, methylene blue uptake (Experiment VI); type: cell-based, human; settings: calcitriol alone
Procedure: as §1

OVCAR-3 cells = assay: Cell growth assay, crystal violet, 11 days; type: cell-based, human; settings: 11 days; for inhibition at 0.1 µM: 100 nM
Procedure: as §2, §3, §4
The cell growth response was determined as described in Experiment I. Briefly, cells were treated with indicated hormone concentrations or combinations of hormone and 24OHase inhibitor (VID400) for 11 days. The growth medium and hormones were changed to a fresh one every third day. After the treatment period, cells were fixed, stained with crystal violet, and the optical density (590 nm) was determined. The cell growth is presented as a percentage of ethanol-treated cells. The values represent the mean of 3 separate experiments ±SD. (*p<0.05, **p<0.001, ***p<0.0001, Student's t-test).
as §5

[6] = system: RARα mRNA in SK-OV-3 cells; assay: RPA and quantitative RT-PCR of receptor mRNA; type: cell-based, human; settings: 100 nM, 24 hour
From the text: (§6) Briefly, ^32P-labelled ([α-^32P]UTP, Amersham Biosciences, Buckinghamshire, UK) RNA-probes were synthesised using in vitro transcription reaction (In vitro transcription reaction kit, Pharmingen, San Diego, Calif.) using two different template sets.
(§7) RPLP0 was used as reference gene.

[7] = system: RARγ mRNA in SK-OV-3 cells; assay: RPA and quantitative RT-PCR of receptor mRNA; type: cell-based, human; settings: 100 nM, 24 hour
From the text: as §6, §7

[8] = system: RARγ mRNA in UT-OC-1 cells; assay: RPA and quantitative RT-PCR of receptor mRNA; type: cell-based, human; settings: 100 nM, 24 hour
From the text: as §6, §7

24-hydroxylase = target: T1, 24-hydroxylase (Homo sapiens, UniProt Q07973); settings: Kahraman et al., J. Med. Chem. 47:6854-6863 (2004); cited from earlier work
T1 sequence (Q07973 36-514): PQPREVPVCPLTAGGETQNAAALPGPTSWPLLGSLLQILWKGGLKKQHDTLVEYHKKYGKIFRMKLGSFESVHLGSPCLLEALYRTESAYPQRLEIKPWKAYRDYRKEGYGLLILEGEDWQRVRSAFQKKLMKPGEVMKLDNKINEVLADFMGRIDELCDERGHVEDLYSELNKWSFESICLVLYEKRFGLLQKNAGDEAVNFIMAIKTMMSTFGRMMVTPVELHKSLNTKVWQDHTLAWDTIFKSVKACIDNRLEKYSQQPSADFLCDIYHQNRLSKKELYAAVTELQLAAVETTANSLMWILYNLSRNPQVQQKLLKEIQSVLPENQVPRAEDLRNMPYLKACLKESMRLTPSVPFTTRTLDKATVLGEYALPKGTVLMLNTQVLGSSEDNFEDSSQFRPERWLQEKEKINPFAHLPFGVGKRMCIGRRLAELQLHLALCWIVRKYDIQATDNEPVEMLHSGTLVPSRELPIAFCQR

[9] = system: 24OHase mRNA in ovarian cancer cell lines; assay: RPA and RT-PCR of 24OHase induction, all cell lines; type: cell-based, human; settings: 100 nM, 24 h, every cell line
From the text: as §6, §7

[10] = system: 24OHase mRNA in UT-OC-5 cells; assay: RPA and RT-PCR of 24OHase induction; type: cell-based, human; settings: 24 h
From the text: as §6, §7

[11] = system: VDR mRNA in UT-OC-1 cells; assay: RPA and quantitative RT-PCR of receptor mRNA; type: cell-based, human; settings: 100 nM, 24 hour
From the text: as §6, §7

[12] = Homo sapiens, OVCAR-3, 264 h, read-out: inhibited growth compared to the control

SMILES | induction of 24OHase mRNA expression ([1]; 6 hr treatment) | induction of 24OHase mRNA expression ([1]; 24 hr treatment) | effect on cell growth (UT-OC-1 cells) | effect on cell growth (UT-OC-4 cells) | inhibition at 0.1 µM (OVCAR-3 cells; [12]) | RARα expression [6] | increase of RARγ compared to control [7] | up regulation of RARγ compared to control [8] | also measured
C=C1/C(=C\C=C2/CCC[C@]3(C)[C@@H]([C@H](C)CCCC(C)(C)O)CC[C@@H]23)C[C@@H](O)C[C@@H]1O [1,25(OH)2D3, calcitriol] | 650 fold | 1,100 fold | did not inhibit the cell growth | did not restrain cell growth | 74% | 186±8 % of control | 78±12% | 91±81% | effect on cell growth [2]: less pronounced; effect on cell growth [3]: less pronounced; effect on cell growth [4]: less pronounced; effect on cell growth [5]: inhibited cell growth in a concentration-dependent manner; stimulated growth compared to the control (OVCAR-3 cells; 0.1 nM): 14%; effect on the cell growth (OVCAR-3 cells; 1 nM alone, Experiment IV): did not have an effect on the cell growth; effect on the cell growth (OVCAR-3 cells; 1 nM, Experiment I): did not have an effect on the cell growth; inhibition at 0.01 µM (OVCAR-3 cells; Homo sapiens, OVCAR-3, 264 h, 10 nM alone, Experiment IV, read-out: growth inhibition compared to the control): 26%; inhibition at 0.01 µM (OVCAR-3 cells; Homo sapiens, OVCAR-3, 264 h, 10 nM, Experiment I, read-out: inhibited growth compared to the control): 8%
C=C1/C(=C\C=C2/CCCC3(C)C2CC[C@@H]3[C@H](C)CCS(=N)(=O)c2ccccc2)C[C@@H](O)C[C@@H]1O (stereo partly shown) [Formula V] | – | – | – | – | – | – | – | – | inhibitory potency for 24-hydroxylase (24-hydroxylase): most potent compound
C=C1/C(=C\C=C2/CCC[C@]3(C)[C@@H]([C@H](C)/C=C/C=C/C(O)(CC)CC)CC[C@@H]23)C[C@@H](O)C[C@@H]1O [EB 1089] | 600 fold | 1,000 fold | did not inhibit the cell growth | did not restrain cell growth | 84% | 134±10 % of control | 51±7% | 47±7% | induction of 24OHase expression compared with 1,25(OH)2D3 [9]: more effective in inducing 24OHase expression; 24OHase induction relative to 100 nM 1,25(OH)2D3 [10]: more than two-fold stronger inducer; inhibition at 0.001 µM (OVCAR-3 cells; Homo sapiens, OVCAR-3, 264 h, 1 nM, read-out: inhibited growth compared to the control): 73%; effect on cell proliferation (OVCAR-3 cells; alone (10 or 100 nM), Experiment V): markedly inhibited the proliferation; VDR expression [11]: 47±8 % of control
